Assay results published in patent US20230331777A1, “NOVEL PEPTOID COMPOUNDS THAT BIND TO CELL RECEPTOR ACE2 AND PREVENT VIRUS ENTRY INTO CELLS” (priority 2020, published 2023).
Starred links: 1 amine or outer side, 2 acyl side, 3 side chain; linkers in the order of their positions; H or OH if unused. Positions of bridges follow the written chain, without caps; N, C: chain ends. Non-standard residues stand in square brackets, D forms with d. Residues, ends and D or L forms follow the SMILES beside them. Chains are numbered I, II in the order given. N(4-MeOBn)Gly = COc1ccc(CNCC(=O)O)cc1; N((CH2)3OiPr)Gly = CC(C)OCCCNCC(=O)O; X1 = CC(c1ccccc1)N(CC(=O)[*:2])[*:1]; NAllylGly = C=CCNCC(=O)O; Nleu = CC(C)CNCC(=O)O; Nme = COCCNCC(=O)O

Test system: SARS-CoV-2 D614G pseudovirus
Type: cell-based, human H1299 cells

| SMILES | SARS-CoV-2 mutant pseudovirus infection |
| --- | --- |
| C=CCN(CC(=O)N(CC(=O)NC(CCCCN)C(=O)NC(CCSC)C(=O)NCCCCC(NC(=O)C(CCSC)NC(=O)C(CCCCN)NC(=O)CN(C(=O)CN(CC=C)C(=O)CN(Cc1ccc(OC)cc1)C(=O)CN(C(=O)CN(CCOC)C(=O)CNCC(C)C)C(C)c1ccccc1)C(C)c1ccccc1)C(N)=O)C(C)c1ccccc1)C(=O)CN(Cc1ccc(OC)cc1)C(=O)CN(C(=O)CN(CCOC)C(=O)CNCC(C)C)C(C)c1ccccc1 (centres unmarked) [ACE2P1D1] (I: H-[Nleu][Nme][X1][N(4-MeOBn)Gly][NAllylGly][X1]KMK-NH2 / II: H-[Nleu][Nme][X1][N(4-MeOBn)Gly][NAllylGly][X1]KM; amide I:9-II:C; configuration not given here) | effective in inhibiting SARS-CoV-2 mutant pseudovirus infection |
| COCCN(CC(=O)NC(CCCCN)C(=O)NC(CCSC)C(=O)NCCCCC(NC(=O)C(CCSC)NC(=O)C(CCCCN)NC(=O)CN(CCOC)C(=O)CN(CC(C)C)C(=O)CN(CC(C)C)C(=O)CN(CCCOC(C)C)C(=O)CN(Cc1ccc(OC)cc1)C(=O)CNCc1ccc(OC)cc1)C(N)=O)C(=O)CN(CC(C)C)C(=O)CN(CC(C)C)C(=O)CN(CCCOC(C)C)C(=O)CN(Cc1ccc(OC)cc1)C(=O)CNCc1ccc(OC)cc1 (centres unmarked) [ACE2P2D1] (I: H-[N(4-MeOBn)Gly][N(4-MeOBn)Gly][N((CH2)3OiPr)Gly][Nleu][Nleu][Nme]KMK-NH2 / II: H-[N(4-MeOBn)Gly][N(4-MeOBn)Gly][N((CH2)3OiPr)Gly][Nleu][Nleu][Nme]KM; amide I:9-II:C; configuration not given here) | effective in inhibiting SARS-CoV-2 mutant pseudovirus infection |
